Reference: patent US20010016571A1, “N-[ (R) -1-{3- (4- piperidyl) propionyl } -3-piperidylcarbonyl] -2 (S) -acetylamino-beta -alanine as fibrinogen receptor antagonist” (FUJISAWA PHARMACEUTICAL CO., LTD., priority 1996, published 2001)

Molecular target: T1, fibrinogen binding to platelets (glycoprotein IIb/IIIa) (Homo sapiens, UniProt P05106+P08514)
T1 construct: Washed human platelets were prepared from platelet-rich plasma by gel filtration; from tissue
Test: Test 1: Fibrinogen Binding to Platelets (FITC-fibrinogen, flow cytometry)
Conditions: washed human platelets activated with 20 μM ADP, fixed; 10 μg/ml FITC-fibrinogen; 30 minutes at room temperature; read-out: IC50 (dose required to inhibit the binding by 50%)
Procedure: Test 1: Fibrinogen Binding to Platelets
Washed human platelets were prepared from platelet-rich plasma by gel filtration. The washed platelets were activated with 20 μM ADP for 10 minutes and then fixed for 30 minutes with 0.8% paraformaldehyde. The platelets were then washed by centrifugation and suspended in HEPES-Tyrodes buffer containing […].
350 μl of platelets were incubated at a final concentration of 2×10^8/ml with 10 μg/ml FITC-fibrinogen and test compound. The reaction was left for 30 minutes at room temperature. The FITC fluoresence of bound fibrinogen was measured by using a FACS can flow cytometer.
Specific binding was calculated by subtracting the binding in the presence of 50-fold excess unlabeled fibrinogen. Result was expressed at IC50 value, i.e. dose required to inhibit the binding by 50%.

T1 sequence (P08514 32-887 limits assumed): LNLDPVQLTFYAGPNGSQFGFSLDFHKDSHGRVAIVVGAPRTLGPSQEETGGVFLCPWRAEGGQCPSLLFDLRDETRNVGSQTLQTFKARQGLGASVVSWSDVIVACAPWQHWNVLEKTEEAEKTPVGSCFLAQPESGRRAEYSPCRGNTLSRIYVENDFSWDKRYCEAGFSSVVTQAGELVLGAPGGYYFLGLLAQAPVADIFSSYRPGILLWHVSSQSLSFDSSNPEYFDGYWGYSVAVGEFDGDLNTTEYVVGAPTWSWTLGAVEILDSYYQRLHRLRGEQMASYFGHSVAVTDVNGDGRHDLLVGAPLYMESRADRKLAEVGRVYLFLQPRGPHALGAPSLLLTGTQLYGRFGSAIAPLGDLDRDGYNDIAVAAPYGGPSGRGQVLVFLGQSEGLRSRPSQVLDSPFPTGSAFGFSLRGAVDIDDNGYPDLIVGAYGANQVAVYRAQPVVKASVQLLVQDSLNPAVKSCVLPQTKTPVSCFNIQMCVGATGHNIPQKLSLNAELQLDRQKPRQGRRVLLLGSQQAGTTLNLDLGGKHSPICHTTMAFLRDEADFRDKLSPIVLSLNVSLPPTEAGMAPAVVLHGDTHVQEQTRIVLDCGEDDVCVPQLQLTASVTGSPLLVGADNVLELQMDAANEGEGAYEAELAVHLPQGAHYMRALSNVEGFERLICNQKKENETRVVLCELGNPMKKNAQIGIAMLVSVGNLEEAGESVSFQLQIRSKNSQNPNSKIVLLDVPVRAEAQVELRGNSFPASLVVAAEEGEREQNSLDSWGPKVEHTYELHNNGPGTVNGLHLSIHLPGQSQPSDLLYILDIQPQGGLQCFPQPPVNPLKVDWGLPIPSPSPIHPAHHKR
T1 sequence (P08514 891-1039 limits assumed): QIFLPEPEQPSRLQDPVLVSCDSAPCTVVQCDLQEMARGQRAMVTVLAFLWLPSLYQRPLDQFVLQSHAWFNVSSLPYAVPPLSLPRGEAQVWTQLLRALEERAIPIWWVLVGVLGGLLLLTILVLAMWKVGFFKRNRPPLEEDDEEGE
T1 sequence (P05106 27-788): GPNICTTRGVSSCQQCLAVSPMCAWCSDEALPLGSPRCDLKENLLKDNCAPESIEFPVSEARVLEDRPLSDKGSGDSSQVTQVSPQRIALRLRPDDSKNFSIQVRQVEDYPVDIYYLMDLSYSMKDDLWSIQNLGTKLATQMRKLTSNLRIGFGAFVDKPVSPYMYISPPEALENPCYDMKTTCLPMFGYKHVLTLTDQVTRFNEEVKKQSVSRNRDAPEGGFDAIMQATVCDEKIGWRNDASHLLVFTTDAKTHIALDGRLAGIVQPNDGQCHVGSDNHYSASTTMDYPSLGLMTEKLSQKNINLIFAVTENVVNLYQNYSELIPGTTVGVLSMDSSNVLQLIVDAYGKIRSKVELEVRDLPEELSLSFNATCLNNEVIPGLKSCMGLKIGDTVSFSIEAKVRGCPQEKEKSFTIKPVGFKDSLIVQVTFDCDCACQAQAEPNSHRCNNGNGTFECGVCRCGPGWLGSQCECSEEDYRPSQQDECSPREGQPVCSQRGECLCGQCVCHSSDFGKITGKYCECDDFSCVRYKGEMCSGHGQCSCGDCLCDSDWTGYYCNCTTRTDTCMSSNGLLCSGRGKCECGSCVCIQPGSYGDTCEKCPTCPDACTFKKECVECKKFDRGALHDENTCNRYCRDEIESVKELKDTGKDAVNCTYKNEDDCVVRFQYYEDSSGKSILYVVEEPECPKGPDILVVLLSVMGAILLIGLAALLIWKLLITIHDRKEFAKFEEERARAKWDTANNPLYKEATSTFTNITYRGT

**Q.** `CC(=O)NC(CNC(=O)[C@@H]1CCCN(C(=O)CCC2CCNCC2)C1)C(=O)O` (stereo partly shown) [Example 1] was tested. Which IC50 did it give?
**A.** 16 nM
